For seven compounds, EC50 results are on record in ChEMBL document CHEMBL5108080 (J Med Chem, 2022).

Some results are limits rather than exact numbers.

In general, EC50 refers to the concentration needed to bring the measured effect to its halfway point.

The test system of assay [1] is Influenza A virus. Nature of the assay: Antiviral activity against group 2 influenza A virus H3N2 (A/Hong Kong-11/1968) infected in human A549 cells assessed as inhibition of viral entry preincubated with compound for 30 mins followed by viral infection for 1 hour further incubated for 48 hrs with replacement of fresh medium containing compound. It counts as functional, organism-based.

In assay [2] the test system is Influenza A virus. Nature of the assay: Antiviral activity against group 2 influenza A virus H3N2 (A/Victoria/361/2011) infected in human A549 cells assessed as inhibition of viral entry preincubated with compound for 30 mins followed by viral infection for 1 hour further incubated for 48 hrs with replacement of fresh medium containing compound. It counts as functional, organism-based.

For the compound `c1ccc(-c2nc3ncccn3c2NC2CCCCC2)cc1`, the EC50 with Influenza A virus [1] was 71 nM; with Influenza A virus [2], 730 nM.

With `COc1ccc(-c2nc3ncccn3c2NC2CCCCC2)cc1`, the EC50 came out at 30 nM in the assay on Influenza A virus [1] and 640 nM with Influenza A virus [2].

With `Oc1ccc(-c2nc3ncccn3c2NC2CCCCC2)cc1`, the 50% effective concentration (EC50) worked out at 360 nM in the assay with Influenza A virus [1] and 1500 nM with Influenza A virus [2].

Consider `Fc1ccc(-c2nc3ncccn3c2NC2CCCCC2)cc1`, for which the EC50 with Influenza A virus [1] was 320 nM; in the assay with Influenza A virus [2], 420 nM.

As to `Brc1ccc(-c2nc3ncccn3c2NC2CCCCC2)cc1`, the EC50 came out at 190 nM in the assay with Influenza A virus [1] and 1500 nM in the assay on Influenza A virus [2].

With `Cc1cc(Br)ccc1-c1nc2ncccn2c1NC1CCCCC1`, in the assay on Influenza A virus [1], the EC50 was found to be 340 nM.

Consider `CCOC(=O)C1=C[C@@H](OC(CC)CC)[C@H](NC(C)=O)[C@@H](N)C1` [OSELTAMIVIR], for which the concentration giving a half-maximal response (EC50) is 22 nM in the assay with Influenza A virus [1] and over 10000 nM in the assay with Influenza A virus [2].
